From ChEMBL document CHEMBL4049381 (Medchemcomm, 2016)

Legend:
[1] = tested on: OATP2B1 H618Q/H579Q double mutant, low affinity site; assay: Substrate activity at human OATP2B1 H618Q/H579Q double mutant low affinity site expressed in Xenopus laevis oocytes assessed as Km for transporter-mediated drug accumulation after 15 mins by Eadie-Hofstee plot method; format: ADME, cell-based
[2] = target: T1, Solute carrier organic anion transporter family member 2B1 (Homo sapiens, UniProt O94956); assay: Drug uptake assessed as human OATP2B1 expressed in Xenopus laevis oocyte mediated drug accumulation per oocyte at 50 uM after 15 mins by LC-MS/MS analysis; format: ADME; details: 0.25 h
T1 sequence (O94956 whole entry): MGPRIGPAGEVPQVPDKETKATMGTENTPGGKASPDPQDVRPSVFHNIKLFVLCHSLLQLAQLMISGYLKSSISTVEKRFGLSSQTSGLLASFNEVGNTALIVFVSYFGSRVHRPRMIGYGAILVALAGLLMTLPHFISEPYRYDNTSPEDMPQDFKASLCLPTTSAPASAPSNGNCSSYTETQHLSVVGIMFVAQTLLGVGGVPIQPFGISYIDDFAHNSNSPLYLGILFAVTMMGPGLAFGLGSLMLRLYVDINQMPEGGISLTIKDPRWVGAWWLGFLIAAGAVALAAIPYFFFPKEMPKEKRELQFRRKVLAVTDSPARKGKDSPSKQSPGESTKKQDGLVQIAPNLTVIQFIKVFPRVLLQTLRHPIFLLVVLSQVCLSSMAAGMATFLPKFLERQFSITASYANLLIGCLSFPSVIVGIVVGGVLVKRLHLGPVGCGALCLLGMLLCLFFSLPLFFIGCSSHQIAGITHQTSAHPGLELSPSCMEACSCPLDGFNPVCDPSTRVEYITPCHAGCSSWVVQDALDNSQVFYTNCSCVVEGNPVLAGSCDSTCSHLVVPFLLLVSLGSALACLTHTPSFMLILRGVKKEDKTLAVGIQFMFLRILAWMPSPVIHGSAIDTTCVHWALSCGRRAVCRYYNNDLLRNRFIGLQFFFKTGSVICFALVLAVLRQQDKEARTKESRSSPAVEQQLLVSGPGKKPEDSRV

[3] = target: Solute carrier organic anion transporter family member 2B1 (Homo sapiens, UniProt O94956, R607A); assay: Drug uptake assessed as human OATP2B1 R607A mutant expressed in Xenopus laevis oocyte mediated drug accumulation at 0.005 to 50 uM after 15 mins by LC-MS/MS analysis relative to wild type protein; format: ADME; details: 0.25 h
Solute carrier organic anion transporter family member 2B1 (Homo sapiens, UniProt O94956, R607A), sequence (O94956 whole entry T392I/R607A): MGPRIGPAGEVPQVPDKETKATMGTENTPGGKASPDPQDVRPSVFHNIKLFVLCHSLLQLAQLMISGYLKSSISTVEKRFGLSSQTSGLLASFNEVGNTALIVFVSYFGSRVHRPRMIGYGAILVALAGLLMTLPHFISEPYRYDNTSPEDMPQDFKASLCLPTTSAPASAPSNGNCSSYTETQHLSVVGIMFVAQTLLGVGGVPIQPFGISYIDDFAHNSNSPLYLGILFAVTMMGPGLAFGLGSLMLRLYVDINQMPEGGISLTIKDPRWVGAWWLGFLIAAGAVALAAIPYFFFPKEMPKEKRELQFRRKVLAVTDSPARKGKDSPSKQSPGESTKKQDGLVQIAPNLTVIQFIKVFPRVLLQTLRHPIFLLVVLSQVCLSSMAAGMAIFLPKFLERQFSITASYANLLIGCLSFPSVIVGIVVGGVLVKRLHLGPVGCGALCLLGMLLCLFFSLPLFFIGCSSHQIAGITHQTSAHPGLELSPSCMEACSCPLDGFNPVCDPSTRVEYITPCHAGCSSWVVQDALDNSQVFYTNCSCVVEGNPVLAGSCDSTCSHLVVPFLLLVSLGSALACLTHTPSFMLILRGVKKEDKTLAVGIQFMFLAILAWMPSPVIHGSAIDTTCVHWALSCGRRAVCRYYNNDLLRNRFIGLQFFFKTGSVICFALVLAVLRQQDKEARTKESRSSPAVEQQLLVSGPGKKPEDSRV

[4] = target: T1, Solute carrier organic anion transporter family member 2B1; assay: Drug uptake assessed as OATP2B1 high affinity site (unknown origin)-mediated drug uptake in presence of 1 mM sulfasalazine relative to control; format: ADME
[5] = target: T1, Solute carrier organic anion transporter family member 2B1; assay: Drug uptake assessed as OATP2B1 low affinity site (unknown origin)-mediated drug uptake in presence of 1 mM sulfasalazine relative to control; format: ADME
[6] = target: T1, Solute carrier organic anion transporter family member 2B1; assay: Substrate activity at human OATP2B1 low affinity site expressed in Xenopus laevis oocytes assessed as Vmax for transporter-mediated drug accumulation per 15 mins per oocyte by Eadie-Hofstee plot method; format: ADME, cell-based; details: 0.25 h
[7] = target: T1, Solute carrier organic anion transporter family member 2B1; assay: Drug uptake assessed as OATP2B1 low affinity site (unknown origin)-mediated drug uptake in presence of 1 mM pravastatin relative to control; format: ADME
[8] = Ratio of Vmax to Km for human OATP2B1 H579Q/H618Q double mutant high affinity site expressed in Xenopus laevis oocytes assessed as transporter-mediated drug uptake per 15 mins per oocyte after 15 mins by Eadie-Hofstee plot method; format: ADME, cell-based; details: 0.25 h
[9] = target: T2, Solute carrier organic anion transporter family member 2B1 (Homo sapiens, UniProt O94956, H618Q); assay: Substrate activity at human OATP2B1 H618Q mutant high affinity site expressed in Xenopus laevis oocytes assessed as Vmax for transporter-mediated drug accumulation per 15 mins per oocyte by Eadie-Hofstee plot method; format: ADME, cell-based; details: 0.25 h
T2 sequence (O94956 whole entry T392I/H618Q): as the sequence (O94956 whole entry T392I/R607A) above, with A607R, H618Q counted along it

[10] = target: T2, Solute carrier organic anion transporter family member 2B1; assay: Ratio of Vmax to Km for human OATP2B1 H618Q mutant low affinity site expressed in Xenopus laevis oocytes assessed as transporter-mediated drug uptake per 15 mins per oocyte after 15 mins by Eadie-Hofstee plot method; format: ADME, cell-based; details: 0.25 h
[11] = Ratio of Vmax to Km for human OATP2B1 H618Q/H579Q double mutant low affinity site expressed in Xenopus laevis oocytes assessed as transporter-mediated drug uptake per 15 mins per oocyte after 15 mins by Eadie-Hofstee plot method; format: ADME, cell-based; details: 0.25 h
[12] = target: T2, Solute carrier organic anion transporter family member 2B1; assay: Drug uptake assessed as human OATP2B1 H618Q mutant expressed in Xenopus laevis oocyte mediated drug accumulation at 0.005 to 50 uM after 15 mins by LC-MS/MS analysis relative to wild type protein; format: ADME; details: 0.25 h
[13] = target: T1, Solute carrier organic anion transporter family member 2B1; assay: Substrate activity at human OATP2B1 high affinity site expressed in Xenopus laevis oocytes assessed as Vmax for transporter-mediated drug accumulation per 15 mins per oocyte by Eadie-Hofstee plot method; format: ADME, cell-based; details: 0.25 h
[14] = tested on: OATP2B1 H579Q/H618Q double mutant, high affinity site; assay: Substrate activity at human OATP2B1 H579Q/H618Q double mutant high affinity site expressed in Xenopus laevis oocytes assessed as Km for transporter-mediated drug accumulation after 15 mins by Eadie-Hofstee plot method; format: ADME, cell-based
[15] = Substrate activity at human OATP2B1 H579Q/H618Q double mutant high affinity site expressed in Xenopus laevis oocytes assessed as Vmax for transporter-mediated drug accumulation per 15 mins per oocyte by Eadie-Hofstee plot method; format: ADME, cell-based; details: 0.25 h
[16] = target: Solute carrier organic anion transporter family member 2B1 (Homo sapiens, UniProt O94956, H219Q); assay: Drug uptake assessed as human OATP2B1 H219Q mutant expressed in Xenopus laevis oocyte mediated drug accumulation at 0.005 to 50 uM after 15 mins by LC-MS/MS analysis relative to wild type protein; format: ADME; details: 0.25 h
Solute carrier organic anion transporter family member 2B1 (Homo sapiens, UniProt O94956, H219Q), sequence (O94956 whole entry H219Q/T392I): as the sequence (O94956 whole entry T392I/R607A) above, with H219Q, A607R counted along it

[17] = target: T3, Solute carrier organic anion transporter family member 2B1 (Homo sapiens, UniProt O94956, H579Q); assay: Drug uptake assessed as human OATP2B1 H579Q mutant expressed in Xenopus laevis oocyte mediated drug accumulation at 50 uM after 15 mins by LC-MS/MS analysis relative to wild type protein; format: ADME; details: 0.25 h
T3 sequence (O94956 whole entry T392I/H579Q): as the sequence (O94956 whole entry T392I/R607A) above, with H579Q, A607R counted along it

[18] = target: T2, Solute carrier organic anion transporter family member 2B1; assay: Ratio of Vmax to Km for human OATP2B1 H618Q mutant high affinity site expressed in Xenopus laevis oocytes assessed as transporter-mediated drug uptake per 15 mins per oocyte after 15 mins by Eadie-Hofstee plot method; format: ADME, cell-based; details: 0.25 h
[19] = target: T1, Solute carrier organic anion transporter family member 2B1; assay: Drug uptake assessed as human OATP2B1 expressed in Xenopus laevis oocyte mediated drug accumulation per oocyte at 0.005 uM after 15 mins by LC-MS/MS analysis; format: ADME; details: 0.25 h
[20] = target: T1, Solute carrier organic anion transporter family member 2B1; assay: Ratio of Vmax to Km for human OATP2B1 high affinity site expressed in Xenopus laevis oocytes assessed as transporter-mediated drug uptake per 15 mins per oocyte after 15 mins by Eadie-Hofstee plot method; format: ADME, cell-based; details: 0.25 h
[21] = target: T2, Solute carrier organic anion transporter family member 2B1; assay: Substrate activity at human OATP2B1 H618Q mutant low affinity site expressed in Xenopus laevis oocytes assessed as Vmax for transporter-mediated drug accumulation per 15 mins per oocyte by Eadie-Hofstee plot method; format: ADME, cell-based; details: 0.25 h
[22] = Substrate activity at human OATP2B1 H618Q/H579Q double mutant low affinity site expressed in Xenopus laevis oocytes assessed as Vmax for transporter-mediated drug accumulation per 15 mins per oocyte by Eadie-Hofstee plot method; format: ADME, cell-based; details: 0.25 h
[23] = target: T1, Solute carrier organic anion transporter family member 2B1; assay: Ratio of Vmax to Km for human OATP2B1 low affinity site expressed in Xenopus laevis oocytes assessed as transporter-mediated drug uptake per 15 mins per oocyte after 15 mins by Eadie-Hofstee plot method; format: ADME, cell-based; details: 0.25 h
[24] = target: T1, Solute carrier organic anion transporter family member 2B1; assay: Drug uptake assessed as OATP2B1 high affinity site (unknown origin)-mediated drug uptake in presence of 1 mM pravastatin relative to control; format: ADME
[25] = target: T2, Solute carrier organic anion transporter family member 2B1; assay: Drug uptake assessed as human OATP2B1 H618Q mutant expressed in Xenopus laevis oocyte mediated drug accumulation at 0.005 uM after 15 mins by LC-MS/MS analysis relative to wild type protein; format: ADME; details: 0.25 h
[26] = target: T3, Solute carrier organic anion transporter family member 2B1; assay: Drug uptake assessed as human OATP2B1 H579Q mutant expressed in Xenopus laevis oocyte mediated drug accumulation at 0.005 to 50 uM after 15 mins by LC-MS/MS analysis relative to wild type protein; format: ADME; details: 0.25 h

Question: For `C[C@]12CC[C@@H]3c4ccc(OS(=O)(=O)O)cc4CC[C@H]3[C@@H]1CCC2=O` [ESTRONE SULFURIC ACID], which Km at 0.25 h [1] is on record?
Answer: 312 µM

Question: What about the Drug uptake [2] of the same compound?
Answer: 0.198 µL

Question: What about the “fold change (FC)” value [3] of the same compound?
Answer: < 2

Question: What about the Drug uptake [4] of the same compound?
Answer: < 1%

Question: And the Drug uptake [5]?
Answer: < 1%

Question: And the Vmax [6]?
Answer: 19.8 pmol

Question: What about the Drug uptake [7] of the same compound?
Answer: 79%

Question: What about the Vmax/Km [8] of the same compound?
Answer: 0.471 µL

Question: And the Vmax [9]?
Answer: 0.0402 pmol

Question: And the Vmax/Km [10]?
Answer: 0.659 µL

Question: And the Vmax/Km [11]?
Answer: 0.0987 µL

Question: What about the “fold change (FC)” value [12] of the same compound?
Answer: < 2

Question: And the Vmax [13]?
Answer: 0.867 pmol

Question: And the Km at 0.25 h [14]?
Answer: 0.808 µM

Question: What about the Vmax [15] of the same compound?
Answer: 0.38 pmol

Question: And the “fold change (FC)” value [16]?
Answer: < 2

Question: And the Drug uptake [17]?
Answer: 14%

Question: And the Vmax/Km [18]?
Answer: 0.269 µL

Question: What about the Drug uptake [19] of the same compound?
Answer: 2.39 µL

Question: And the Vmax/Km [20]?
Answer: 1.87 µL

Question: What about the Vmax [21] of the same compound?
Answer: 60 pmol

Question: What about the Vmax [22] of the same compound?
Answer: 30.9 pmol

Question: What about the Vmax/Km [23] of the same compound?
Answer: 0.385 µL

Question: And the Drug uptake [24]?
Answer: 21%

Question: What about the Drug uptake [25] of the same compound?
Answer: 17.8%

Question: And the “fold change (FC)” value [26]?
Answer: < 2
